Reference: patent US9034850B2, “Gonadotropin releasing hormone receptor antagonist, preparation method thereof and pharmaceutical composition comprising the same” (SK Chemicals Co., Ltd., priority 2009, dated 2015)

Molecular target: T1, GnRH receptor (Homo sapiens, UniProt P30968)
T1 sequence (P30968 1-328): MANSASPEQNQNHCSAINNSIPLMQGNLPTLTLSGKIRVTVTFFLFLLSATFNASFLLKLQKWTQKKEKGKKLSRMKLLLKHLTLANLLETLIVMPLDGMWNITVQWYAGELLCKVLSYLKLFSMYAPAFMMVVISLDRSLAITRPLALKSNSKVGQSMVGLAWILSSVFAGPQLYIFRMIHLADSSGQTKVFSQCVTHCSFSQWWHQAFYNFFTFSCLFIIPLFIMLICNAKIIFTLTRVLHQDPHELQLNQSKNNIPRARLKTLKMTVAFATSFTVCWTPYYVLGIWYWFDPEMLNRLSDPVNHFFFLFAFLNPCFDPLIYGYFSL
Assay: GnRH receptor membrane binding assay ([125I]-D-Trp6-LHRH competition)
Design: purchased Perkin Elmer; host or cells: CHO-K1 (stably transfected), membrane preparation
Conditions: not given
Experimental: A membrane Target system (Perkin Elmer), isolated from CHO-K1 cells stably transfected with a GnRH receptor, was employed. […] After incubation at 27° C. for 1 hr, the reaction mix was transferred to a filter (Fitermat A, PerkinElmer) using a vacuum pump and the reaction was terminated by washing many times with 50 mM tris-HCl buffer. The radioactivity on the filter was measured using Microbeta2 trilux (PerkinElmer). The competitors were analyzed for binding inhibition rate (%) on the basis of the measured radioactivity and calculated for IC50 values using a nonlinear least square regression method with Prism (GraphPad, Inc.).

| SMILES | IC50 |
| --- | --- |
| Cc1c(N2CCCC(C)C2)c(=O)n(C[C@H](N)c2ccccc2)c(=O)n1Cc1c(F)cccc1F (stereo partly drawn) [Compound 1-18] | < 100 nM |
| Cc1c(N2CCN(Cc3cccc(OC(F)(F)F)c3)CC2)c(=O)n(C[C@H](N)c2ccccc2)c(=O)n1Cc1c(F)cccc1F [Compound 3-1] | < 100 nM |
| Cc1c(N2CCN(Cc3ccc(O)cc3)CC2)c(=O)n(C[C@H](N)c2ccccc2)c(=O)n1Cc1c(F)cccc1F [Compound 3-31] | < 100 nM |
| Cc1c(N2CCN(Cc3cccc(C(F)(F)F)c3)CC2)c(=O)n(C[C@H](N)c2ccccc2)c(=O)n1Cc1c(F)cccc1F [Compound 3-47] | < 100 nM |
| Cc1c(N2CCN(Cc3cccc(C(F)(F)F)c3F)CC2)c(=O)n(C[C@H](N)c2ccccc2)c(=O)n1Cc1c(F)cccc1F [Compound 3-50] | < 100 nM |

Same assay, conditions: membrane from CHO-K1 cells stably transfected with GnRH receptor; 0.2 nM [125I]-D-Trp6-LHRH; Table 26 lists compounds with IC50 of less than 100 nM; read-out: IC50 as measured by the GnRH receptor membrane binding assay

| SMILES | IC50 |
| --- | --- |
| Cc1c(N2CCN(Cc3ccc4c(c3)OCO4)CC2)c(=O)n(C[C@H](N)c2ccccc2)c(=O)n1Cc1c(F)cccc1F [Compound 1-13] | < 100 nM |
| Cc1c(N2CCC(C)CC2)c(=O)n(C[C@H](N)c2ccccc2)c(=O)n1Cc1c(F)cccc1F [Compound 1-16] | < 100 nM |
| Cc1c(N2CCC(Cc3ccccc3)CC2)c(=O)n(C[C@H](N)c2ccccc2)c(=O)n1Cc1c(F)cccc1F [Compound 1-26] | < 100 nM |
| Cc1c(N2CCN(Cc3cccnc3)CC2)c(=O)n(C[C@H](N)c2ccccc2)c(=O)n1Cc1c(F)cccc1F [Compound 3-7] | < 100 nM |
| CSc1ccc(CN2CCN(c3c(C)n(Cc4c(F)cccc4F)c(=O)n(C[C@H](N)c4ccccc4)c3=O)CC2)cc1 [Compound 3-29] | < 100 nM |
| Cc1cc(C)c(CN2CCN(c3c(C)n(Cc4c(F)cccc4F)c(=O)n(C[C@H](N)c4ccccc4)c3=O)CC2)c(C)c1 [Compound 3-32] | < 100 nM |
| Cc1c(N2CCN(Cc3ccc(OC(F)(F)F)cc3)CC2)c(=O)n(C[C@H](N)c2ccccc2)c(=O)n1Cc1c(F)cccc1F [Compound 3-49] | < 100 nM |
| Cc1c(N2CCN(Cc3ccc(F)c(C(F)(F)F)c3)CC2)c(=O)n(C[C@H](N)c2ccccc2)c(=O)n1Cc1c(F)cccc1F [Compound 3-52] | < 100 nM |
| Cc1ccc(CN2CCN(c3c(C)n(Cc4c(F)cccc4F)c(=O)n(C[C@H](N)c4ccccc4)c3=O)CC2)c(C)c1 [Compound 4-4] | < 100 nM |
| Cc1cccc(C)c1CN1CCN(c2c(C)n(Cc3c(F)cccc3F)c(=O)n(C[C@H](N)c3ccccc3)c2=O)CC1 [Compound 4-6] | < 100 nM |
| Cc1cccc(CN2CCN(c3c(C)n(Cc4c(F)cccc4F)c(=O)n(C[C@H](N)c4ccccc4)c3=O)CC2)c1O [Compound 4-9] | < 100 nM |
| COC(=O)CNC(=O)c1cccc(CN2CCN(c3c(C)n(Cc4c(F)cccc4C(F)(F)F)c(=O)n(C[C@H](N)c4ccccc4)c3=O)CC2)c1 [Compound 10-1] | < 100 nM |
| CCOC(=O)CCNC(=O)c1cccc(CN2CCN(c3c(C)n(Cc4c(F)cccc4C(F)(F)F)c(=O)n(C[C@H](N)c4ccccc4)c3=O)CC2)c1 [Compound 10-2] | < 100 nM |
| Cc1c(N2CCN(Cc3ccc(C(F)(F)F)o3)CC2)c(=O)n(C[C@H](NCCCCC(=O)O)c2ccccc2)c(=O)n1Cc1c(F)cccc1C(F)(F)F [Compound 11-8] | < 100 nM |
| CCOP(=O)(O)CCCN[C@@H](Cn1c(=O)c(N2CCN(Cc3ccc(C(F)(F)F)o3)CC2)c(C)n(Cc2c(F)cccc2C(F)(F)F)c1=O)c1ccccc1 [Compound 11-10] | < 100 nM |
| N[C@@H](Cn1c(=O)c(N2CCN(Cc3cccc(-c4nnn[nH]4)c3)CC2)cn(Cc2c(F)cccc2C(F)(F)F)c1=O)c1ccccc1 [Compound 18, 3-((R)-2-amino-2-phenyl-ethyl)-1-(2-fluoro-6-trifluoromethyl-benzyl)-5-{4-[3-(1H-tetrazol-5-yl)-benzyl]-piperazin-1-yl}-1H-pyrimidine-2,4-dione] | < 100 nM |
| Cc1c(N2CCN(Cc3ccc(C(F)(F)F)o3)CC2)c(=O)n(C[C@H](O)c2ccccc2)c(=O)n1Cc1c(F)cccc1C(F)(F)F [Compound 20, 1-(2-fluoro-6-trifluoromethyl-benzyl)-3-((R)-2-hydroxy-2-phenyl-ethyl)-6-methyl-5-[4-(5-trifluoromethyl-furan-2-ylmethyl)-piperazin-1-yl]-1H-pyrimidine-2,4-dione] | < 100 nM |
| Cc1c(N2CCN(Cc3ccc(C(F)(F)F)o3)CC2)c(=O)n(C[C@H](NCCC(O)C(=O)O)c2ccccc2)c(=O)n1Cc1c(F)cccc1C(F)(F)F (stereo partly drawn) [Compound 21, 4-((R)-2-{3-(2-fluoro-6-trifluoromethyl-benzyl)-4-methyl-2,6-dioxo-5-[4-(5-trifluoromethyl-furan-2-ylmethyl)-piperazin-1-yl]-3,6-dihydro-2H-pyrimidin-1-yl}-1-phenyl-ethylamino)-2-hydroxy-butyric acid] | < 100 nM |
| Cc1c(N2CCN(Cc3ccc(C(F)(F)F)o3)C(CO)C2)c(=O)n(C[C@H](N)c2ccccc2)c(=O)n1Cc1c(F)cccc1C(F)(F)F (stereo partly drawn) [Compound 22, 3-((R)-2-amino-2-phenyl-ethyl)-1-(2-fluoro-6-trifluoromethyl-benzyl)-5-[3-hydroxymethyl-4-(5-trifluoromethyl-furan-2-ylmethyl)-piperazin-1-yl]-6-methyl-1H-pyrimidine-2,4-dione] | < 100 nM |

System: not listed separately
Assay: Assay for oral absorptivity (plasma drug level after oral administration)
Type: in vivo
Conditions: male, rat, 40 umol/kg; SD rats, oral, plasma
Experimental: 1) Preparation of Specimen for Measuring Drug Level upon Oral Administration
For use as experimental animals, SD rats (Charles River Japan, male, 8 weeks old, 220-270 g) was starved overnight. Test compounds (25˜30 mg) were dissolved in polyethyleneglycol 400 (PEG400) 20%, and a 0.5% carboxy methyl cellulose (CMC) solution 80% to produce solutions of 4 μmmol/mL. The rats were weighed. The test compounds were orally administered at a dose of 40 μmol/kg (ca. 25˜30 mg/kg) to the rats using a sonde and a 3 mL syringe. Blood samples were taken 20, 40, 60, 120, 240, and 360 min after the oral administration. Plasmas separated from the blood samples by centrifugation were used as specimens.
2) Measurement of Drug Level
0.09 mL of methanol was added to 0.03 mL of the plasma obtained in 1), followed by vortexing to precipitate and remove proteins. 0.005 mL of the supernatant was injected to LC/MS/MS.
Apparatus: Shiseido Nanospace SI-2
Column: Shiseido capcelpack C18, MG3, 5 um, 2.0 mm I.D×50 mm
Mobile Phase: a mixture of 3:7 10 mM ammonium formate (pH 4.0): acetonitrile.

| SMILES | Cmax |
| --- | --- |
| Cc1c(N2CCN(Cc3cccc(C(F)(F)F)c3)CC2)c(=O)n(C[C@H](NCCCC(=O)O)c2ccccc2)c(=O)n1Cc1c(F)cccc1C(F)(F)F [Compound 11-2] | 5100 ng/mL |
| Cc1cc(F)cc([C@H](Cn2c(=O)c(N3CCN(Cc4ccc(C(F)(F)F)o4)CC3)c(C)n(Cc3c(F)cccc3C(F)(F)F)c2=O)NCCCC(=O)O)c1 [Compound 11-4] | 4140 ng/mL |

Same assay, conditions: male, rat, 40 μmol/kg; plasma drug level after oral administration, SD rats; read-out: AUC8 hr

| SMILES | AUC(0-t) |
| --- | --- |
| Cc1c(N2CCN(Cc3cccc(C(F)(F)F)c3)CC2)c(=O)n(C[C@H](NCCCC(=O)O)c2ccccc2)c(=O)n1Cc1c(F)cccc1C(F)(F)F [Compound 11-2] | 29400 ng·h/mL |
| Cc1cc(F)cc([C@H](Cn2c(=O)c(N3CCN(Cc4ccc(C(F)(F)F)o4)CC3)c(C)n(Cc3c(F)cccc3C(F)(F)F)c2=O)NCCCC(=O)O)c1 [Compound 11-4] | 19600 ng·h/mL |

Molecular target: T1, GnRH receptor
Assay: GnRH-R reporter assay (NFAT promoter luciferase, leuprolide acetate as ligand)
Type: cell-based
Conditions: not given
Experimental: A double-transformed cell line (HEK293 transformed with pcDNA3.1/GnRH receptor and pGL4/NFAT promoter) was employed. To conduct a GnRH-R reporter assay, the double-transformed cell line was diluted at a density of 3×10^4 cells/well in a medium (DMEM, 10% FBS, 1% Penicillin-Streptomycin), plated into polylysine-coated white-clear bottom 96-well plates and incubated for 24 hrs. After the medium was changed with a serum-free medium (DMEM, 1% Penicillin-Streptomycin), the cells were incubated for an additional 12 hrs before reaction. The cells were incubated for 1 hr with a GnRH antagonist to be tested and then for an additional 6 hrs with a ligand (leuprolide acetate, Sigma), followed by reaction with a Luciferase assay system (Promega, Cat. No. E1500).
Each sample was analyzed at a 6-dose level to obtain the binding inhibitory rates (%) of the competitors on the basis of the measured luminescence. IC50 values were calculated using a nonlinear least square regression method with Prism (GraphPad, Inc.).

| SMILES | IC50 |
| --- | --- |
| Cc1c(N2CCN(Cc3cccc(C(F)(F)F)c3)CC2)c(=O)n(C[C@H](NCCCC(=O)O)c2ccccc2)c(=O)n1Cc1c(F)cccc1C(F)(F)F [Compound 11-2] | 9.9 nM |

Same assay, conditions: HEK293 transformed with pcDNA3.1/GnRH receptor and pGL4/NFAT promoter; luciferase; read-out: IC50 Value

| SMILES | IC50 |
| --- | --- |
| Cc1cc(F)cc([C@H](Cn2c(=O)c(N3CCN(Cc4ccc(C(F)(F)F)o4)CC3)c(C)n(Cc3c(F)cccc3C(F)(F)F)c2=O)NCCCC(=O)O)c1 [Compound 11-4] | 4.9 nM |
